# Results as given in US20090118332A1, “Therapeutic Agents - 551” (AstraZeneca AB, priority 2006, published 2009).
# Target: T1, human Fatty Acid Synthase (Homo sapiens, UniProt P49327)
# T1 construct: made in house
# Test: Human FAS enzyme assay (decrease in NADPH fluorescence)
# Type: biochemical
# Conditions: % inhibition at a concentration of 100 μmolar
# Procedure, shortened: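 In-house human FAS was preincubated with compound and NADPH for 15 min at room temperature in 0.1 M Tris pH 7.5 with EDTA, glutathione and BSA. Malonyl CoA and acetyl CoA (500 μM and 150 μM in the added mix) were then added for 60 min. IC50 came from time-zero-subtracted NADPH fluorescence (340/460 nm).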
# T1 sequence (P49327 whole entry): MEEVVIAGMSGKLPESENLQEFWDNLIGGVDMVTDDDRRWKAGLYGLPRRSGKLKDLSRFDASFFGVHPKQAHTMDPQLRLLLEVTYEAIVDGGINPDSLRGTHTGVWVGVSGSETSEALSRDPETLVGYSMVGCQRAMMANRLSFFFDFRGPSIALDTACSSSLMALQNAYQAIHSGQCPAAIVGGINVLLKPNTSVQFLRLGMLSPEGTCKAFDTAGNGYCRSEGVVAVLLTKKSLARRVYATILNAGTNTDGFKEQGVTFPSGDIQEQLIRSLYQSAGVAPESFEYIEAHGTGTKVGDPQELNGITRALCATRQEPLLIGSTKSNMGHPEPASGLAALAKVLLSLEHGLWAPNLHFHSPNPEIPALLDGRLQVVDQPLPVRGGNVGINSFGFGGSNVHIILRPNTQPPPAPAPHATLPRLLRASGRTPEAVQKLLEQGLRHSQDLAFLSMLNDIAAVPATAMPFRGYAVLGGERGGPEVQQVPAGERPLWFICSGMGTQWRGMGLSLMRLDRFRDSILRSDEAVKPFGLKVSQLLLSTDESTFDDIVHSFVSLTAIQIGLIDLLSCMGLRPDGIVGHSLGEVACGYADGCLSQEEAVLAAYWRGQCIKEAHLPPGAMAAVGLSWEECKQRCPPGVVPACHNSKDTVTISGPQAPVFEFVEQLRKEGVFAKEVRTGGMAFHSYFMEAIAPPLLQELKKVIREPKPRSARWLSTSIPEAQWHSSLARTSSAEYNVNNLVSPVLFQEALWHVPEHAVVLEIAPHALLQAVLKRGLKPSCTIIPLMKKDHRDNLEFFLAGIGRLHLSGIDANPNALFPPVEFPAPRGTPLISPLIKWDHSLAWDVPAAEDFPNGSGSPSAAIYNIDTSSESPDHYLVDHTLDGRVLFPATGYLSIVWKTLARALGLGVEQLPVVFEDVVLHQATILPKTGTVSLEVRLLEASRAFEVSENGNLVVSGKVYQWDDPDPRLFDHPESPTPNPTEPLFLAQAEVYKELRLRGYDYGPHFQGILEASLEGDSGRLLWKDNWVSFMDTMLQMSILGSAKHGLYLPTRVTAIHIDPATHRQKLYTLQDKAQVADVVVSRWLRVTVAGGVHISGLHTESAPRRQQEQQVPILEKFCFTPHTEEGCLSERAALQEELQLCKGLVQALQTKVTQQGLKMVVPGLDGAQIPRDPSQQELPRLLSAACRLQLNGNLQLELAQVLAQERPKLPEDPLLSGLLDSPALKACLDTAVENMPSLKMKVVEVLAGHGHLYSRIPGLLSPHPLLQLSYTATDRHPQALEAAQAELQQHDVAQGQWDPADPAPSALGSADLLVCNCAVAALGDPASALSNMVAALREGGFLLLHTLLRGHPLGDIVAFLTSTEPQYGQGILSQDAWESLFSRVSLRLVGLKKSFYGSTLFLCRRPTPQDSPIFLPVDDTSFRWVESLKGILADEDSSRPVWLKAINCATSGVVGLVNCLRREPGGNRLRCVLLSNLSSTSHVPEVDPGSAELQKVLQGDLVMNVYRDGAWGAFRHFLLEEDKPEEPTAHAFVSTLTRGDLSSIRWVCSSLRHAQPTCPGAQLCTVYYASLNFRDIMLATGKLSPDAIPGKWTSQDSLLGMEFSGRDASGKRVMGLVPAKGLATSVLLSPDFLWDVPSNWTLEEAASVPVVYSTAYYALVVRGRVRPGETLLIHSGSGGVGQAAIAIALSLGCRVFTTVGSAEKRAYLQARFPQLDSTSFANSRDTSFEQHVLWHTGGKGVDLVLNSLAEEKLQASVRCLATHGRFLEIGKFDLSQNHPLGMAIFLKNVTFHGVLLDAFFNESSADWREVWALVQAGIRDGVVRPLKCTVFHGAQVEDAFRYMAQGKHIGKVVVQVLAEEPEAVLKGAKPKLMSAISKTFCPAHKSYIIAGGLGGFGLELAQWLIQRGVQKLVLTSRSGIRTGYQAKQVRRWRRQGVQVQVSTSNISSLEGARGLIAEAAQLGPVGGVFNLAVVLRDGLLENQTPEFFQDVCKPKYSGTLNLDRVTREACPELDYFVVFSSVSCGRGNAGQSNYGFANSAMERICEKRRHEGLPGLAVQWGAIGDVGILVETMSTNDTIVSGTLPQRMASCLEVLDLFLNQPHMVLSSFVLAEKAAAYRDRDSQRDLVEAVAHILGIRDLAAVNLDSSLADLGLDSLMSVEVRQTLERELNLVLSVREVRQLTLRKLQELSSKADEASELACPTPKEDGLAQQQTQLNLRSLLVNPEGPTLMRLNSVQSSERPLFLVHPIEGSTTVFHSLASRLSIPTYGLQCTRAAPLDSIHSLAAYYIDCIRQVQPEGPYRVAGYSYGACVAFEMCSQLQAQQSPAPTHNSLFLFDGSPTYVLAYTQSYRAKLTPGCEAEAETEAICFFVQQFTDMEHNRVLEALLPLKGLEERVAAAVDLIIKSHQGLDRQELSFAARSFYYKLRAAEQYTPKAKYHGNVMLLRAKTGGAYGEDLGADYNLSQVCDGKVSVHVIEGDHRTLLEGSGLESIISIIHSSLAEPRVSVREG
row,inhibition at 100 µM,SMILES
1,89%,"Cc1ccc(C(=O)N2CCC(c3ccc(C#N)cc3)CC2)cc1NC(=O)NCc1cn(C)nc1C [Example 258, 1-[5-[4-(4-cyanophenyl)piperidine-1-carbonyl]-2-methyl-phenyl]-3-[(1,3-dimethylpyrazol-4-yl)methyl]urea]"
2,77.4%,"Cc1ccc(C(=O)N2CCC(c3ccc(C#N)cc3)CC2)cc1NC(=O)NC(C)(C)CN [Example 260, 3-(1-amino-2-methyl-propan-2-yl)-1-[5-[4-(4-cyanophenyl)piperidine-1-carbonyl]-2-methyl-phenyl]urea]"
3,85.9%,"CC(=O)NC(C)(C)CNC(=O)Nc1cc(C(=O)N2CCC(c3ccc(C#N)cc3)CC2)ccc1C [Example 261, N-[1-[[5-[4-(4-cyanophenyl)piperidine-1-carbonyl]-2-methyl-phenyl]carbamoylamino]-2-methyl-propan-2-yl]acetamide]"
4,98.7%,"CCC(=O)NC(C)(C)CNC(=O)Nc1cc(C(=O)N2CCC(c3ccc(C#N)cc3)CC2)ccc1C [Example 262, N-[1-[[5-[4-(4-cyanophenyl)piperidine-1-carbonyl]-2-methyl-phenyl]carbamoylamino]-2-methyl-propan-2-yl]propanamide]"
5,79%,"Cc1ccc(C(=O)N2CCC(c3ccc(C#N)cc3)CC2)cc1NC(=O)NCC(C)(C)NC(=O)C(C)C [Example 263, N-[1-[[5-[4-(4-cyanophenyl)piperidine-1-carbonyl]-2-methyl-phenyl]carbamoylamino]-2-methyl-propan-2-yl]-2-methyl-propanamide]"
6,90.1%,"Cc1csc(CNC(=O)Nc2cc(C(=O)N3CCC(c4ccc(C#N)cc4)CC3)ccc2C)n1 [Example 264, 1-[5-[4-(4-cyanophenyl)piperidine-1-carbonyl]-2-methyl-phenyl]-3-[(4-methyl-1,3-thiazol-2-yl)methyl]urea]"
7,90.6%,"Cc1ccc(C(=O)N2CCC(c3ccc(C#N)cc3)CC2)cc1NC(=O)N[C@@H]1CCC(=O)NC1 [Example 265, 1-[5-[4-(4-cyanophenyl)piperidine-1-carbonyl]-2-methyl-phenyl]-3-[(3R)-6-oxo-3-piperidyl]urea]"
8,103%,"Cc1ccc(C(=O)N2CCC(c3ccc(C#N)cc3)CC2)cc1NC(=O)NCc1ccncn1 [Example 266, 1-[5-[4-(4-cyanophenyl)piperidine-1-carbonyl]-2-methyl-phenyl]-3-(pyrimidin-4-ylmethyl)urea]"
9,90.9%,"Cc1ccc(C(=O)N2CCC(c3ccc(C#N)cc3)CC2)cc1NC(=O)NCc1cn(C)cn1 [Example 267, 1-[5-[4-(4-cyanophenyl)piperidine-1-carbonyl]-2-methyl-phenyl]-3-[(1-methylimidazol-4-yl)methyl]urea]"
10,90.1%,"Cc1ccc(C(=O)N2CCC(c3ccc(C#N)cc3)CC2)cc1NC(=O)NCC1CCN(C)C1 (stereo not drawn) [Example 268, 1-[5-[4-(4-cyanophenyl)piperidine-1-carbonyl]-2-methyl-phenyl]-3-[(1-methylpyrrolidin-3-yl)methyl]urea]"
11,89.9%,"Cc1ccc(C(=O)N2CCC(c3ccc(C#N)cc3)CC2)cc1NC(=O)NCc1ncco1 [Example 269, 1-[5-[4-(4-cyanophenyl)piperidine-1-carbonyl]-2-methyl-phenyl]-3-(1,3-oxazol-2-ylmethyl)urea]"
12,93.4%,"Cc1ccc(C(=O)N2CCC(c3ccc(C#N)cc3)CC2)cc1NC(=O)NCCN(C)C(=O)C(C)C [Example 271, N-[2-[[5-[4-(4-cyanophenyl)piperidine-1-carbonyl]-2-methyl-phenyl]carbamoylamino]ethyl]-N, 2-dimethyl-propanamide]"
13,93.9%,"CCS(=O)(=O)N(C)CCNC(=O)Nc1cc(C(=O)N2CCC(c3ccc(C#N)cc3)CC2)ccc1C [Example 272, 3-[5-[4-(4-cyanophenyl)piperidine-1-carbonyl]-2-methyl-phenyl]-1-[2-(ethylsulfonyl-methyl-amino)ethyl]urea]"
14,87%,"CC(=O)NCCCNC(=O)Nc1cc(C(=O)N2CCC(c3ccc(C#N)cc3)CC2)ccc1C [Example 273, N-[3-[[5-[4-(4-cyanophenyl)piperidine-1-carbonyl]-2-methyl-phenyl]carbamoylamino]propyl]acetamide]"
15,86%,"Cc1ccc(C(=O)N2CCC(c3ccc(C#N)cc3)CC2)cc1NC(=O)NCCCNC(=O)C(C)C [Example 274, N-[3-[[5-[4-(4-cyanophenyl)piperidine-1-carbonyl]-2-methyl-phenyl]carbamoylamino]propyl]-2-methyl-propanamide]"
16,106%,"CC(=O)N1CC[C@@H](NC(=O)Nc2cc(C(=O)N3CCC(c4ccc(C#N)cc4)CC3)ccc2C)C1 [Example 275, 3-[(3R)-1-acetylpyrrolidin-3-yl]-1-[5-[4-(4-cyanophenyl)piperidine-1-carbonyl]-2-methyl-phenyl]urea]"
17,98.2%,"CCC(=O)N1CC[C@@H](NC(=O)Nc2cc(C(=O)N3CCC(c4ccc(C#N)cc4)CC3)ccc2C)C1 [Example 276, 3-[5-[4-(4-cyanophenyl)piperidine-1-carbonyl]-2-methyl-phenyl]-1-[(3R)-1-propanoylpyrrolidin-3-yl]urea]"
18,96.8%,"CC(=O)N1CC[C@H](NC(=O)Nc2cc(C(=O)N3CCC(c4ccc(C#N)cc4)CC3)ccc2C)C1 [Example 277, 3-[(3S)-1-acetylpyrrolidin-3-yl]-1-[5-[4-(4-cyanophenyl)piperidine-1-carbonyl]-2-methyl-phenyl]urea]"
19,95.8%,"Cc1ccc(NC(=O)NCCCS(C)(=O)=O)cc1C(=O)N1CCC(c2ccc(C#N)cc2)CC1 [Example 278, 1-[3-[4-(4-cyanophenyl)piperidine-1-carbonyl]-4-methyl-phenyl]-3-(3-methylsulfonylpropyl)urea]"
20,99.4%,"Cc1ccc(C(=O)N2CCC(c3ccc(C#N)cc3)CC2)cc1NC(=O)NC1CCCN(C(=O)OC(C)(C)C)C1 (stereo not drawn) [Example 279, tert-butyl 3-[[5-[4-(4-cyanophenyl)piperidine-1-carbonyl]-2-methyl-phenyl]carbamoylamino]piperidine-1-carboxylate]"
21,90.6%,"N#Cc1ccc(C2CCN(C(=O)c3ccc(C(F)(F)F)c(NC(=O)NCc4ccccc4)c3)CC2)cc1 [Example 280, 1-benzyl-3-[5-[4-(4-cyanophenyl)piperidine-1-carbonyl]-2-(trifluoromethyl)phenyl]urea]"
22,99.7%,"Cc1ccc(C(=O)N2CCC(c3ccc(C#N)cc3)CC2)cc1NC(=O)NC1CCN(S(C)(=O)=O)CC1 [Example 281, 1-[5-[4-(4-cyanophenyl)piperidine-1-carbonyl]-2-methyl-phenyl]-3-(1-methylsulfonyl-4-piperidyl)urea]"
23,95%,"CC(=O)N1CCC(NC(=O)Nc2cc(C(=O)N3CCC(c4ccc(C#N)cc4)CC3)ccc2C)CC1 [Example 282, 3-(1-acetyl-4-piperidyl)-1-[5-[4-(4-cyanophenyl)piperidine-1-carbonyl]-2-methyl-phenyl]urea]"
24,101%,"Cc1ccc(C(=O)N2CCC(c3ccc(C#N)cc3)CC2)cc1NC(=O)NC1CCN(C(=O)C(C)C)CC1 [Example 283, 1-[5-[4-(4-cyanophenyl)piperidine-1-carbonyl]-2-methyl-phenyl]-3-[1-(2-methylpropanoyl)-4-piperidyl]urea]"
